Molecules are shown by their SMILES.

The assay deals with CT26 cells. Description: CT26 cell viability with TGFβI and/or Mit-A (CellTiter-Glo). The class given is cell-based, mouse. As to conditions: LY2109761 (5 μM) and/or 150 nM Mit-A for 48 hrs; FIG. 9. As for the experimental part: FIG. 9 depicts a bar graph of cell viability assayed by CellTiter-Glo of CT26 cells that were cultured in the presence of TGFβI, LY2109761 (5 μM) and/or 150 nM Mit-A for 48 hrs.
Mit-A potentiates the inhibitory effects of transforming growth factor β (TGFβ): TGFβ activated stroma is one of the defining features of MSS CRCs^33. […] However, inhibition of TGFβ in these tumors induced a potent anti-tumor response. Since Sp1 is implicated in TGFβ induced tumor invasion, whether inhibition of TGFβ signaling will promote sensitization of CT26 cells to Mit-A was examined.
For orientation: In ATP-based viability assays light output follows the ATP content of the culture.

Take `c1ccc(-c2nn3c(c2-c2ccnc4cc(OCCN5CCOCC5)ccc24)CCC3)nc1` [LY2109761]: the CT26 cell viability result is “did not inhibit”.

Source of the values: US12728137B2, “Methods of treating cancer with a combination of mithramycin and immunotherapy” (University of South Florida, priority 2019, dated 2026).
